According to patent US8309608B2, “Use of eNOS transcription enhancers in the cell therapy of ischemic heart diseases” (Sanofi-Aventis Deutschland GmbH, priority 2003, dated 2012):

Assays:
[1] = test system: eNOS promoter (eNOS transcription); assay: luciferase assay for activation of eNOS transcription; format: cell-based; conditions: human endothelial cell line with eNOS promoter-luciferase construct, 18 hours incubation; for TIR(max) value (maximum transcription induction ratio): ratio vs solvent alone; for EC50: read-out: EC50 value of transcription induction ratio
Protocol: Activation of eNOS transcription was measured as described in detail in Li et al., Activation of protein kinase C alpha and/or epsilon enhances transcription of the human endothelial nitric oxide synthase gene, Mol. Pharmacol. 1998, 53:630-637. Briefly, a 3.5 kB long fragment 5′ of the starting codon of the eNOS gene was cloned, sequenced and cloned in firefly luciferase expression plasmids to monitor activation of the eNOS promoter by reporter gene activity. A human endothelial cell line stable transfected and expressing this promoter-reporter construct was used for compound testing. Cells were incubated for 18 hours with compounds. All compounds were dissolved before in sterile dimethylsulfoxide (DMSO). A final concentration of 0.5% DMSO in complete medium was allowed. Induction of reporter gene expression in these cells was measured using a standard luciferase assay system (Promega, Madison, Wis., USA; Cat. No E150) according to the manufacturer's instructions. Luciferase induction in cells incubated with compounds were compared to those incubated with solvent alone. The ratio of both activities (transcription induction ratio, TIR) was plotted as a function of compound concentration. Typically, TIR values started at low concentrations at a ratio of 1, indicating no compound effect, and extended up to a maximum TIR value TIR(max) which indicates the increase of the eNOS transcription. EC50 values of transcription induction ratios as a function of compound concentration were determined graphically.

[2] = test system: athymic NMRI nude mice, hind limb ischemia; assay: in vivo hind limb ischemia model in mice (laser Doppler blood flow after injection of pretreated cells); conditions: 5×10^5 cells/mouse i.v., measured after two weeks
Protocol: For incubation with the eNOS transcription enhancer 4-fluoro-N-(indan-2-yl)benzamide, 1 ml of a suspension of 1000000 stem and progenitor cells in 1 ml of X-Vivo 10 cell culture medium was mixed with 1 μl of a solution of 4-fluoro-N-(indan-2-yl)benzamide in dimethylsulfoxide (DMSO) which had been prepared by dissolution of 1.275 mg of 4-fluoro-N-(indan-2-yl)benzamide in 1 ml of DMSO. The concentration of 4-fluoro-N-(indan-2-yl)benzamide in the resulting mixture was 5 μM. […]
The neovascularization capacity of bone marrow stem and progenitor cells was investigated in a murine model of hind limb ischemia by use of 8 to 10 week old athymic NMRI nude mice (The Jackson Laboratory, Bar Harbor, Me., USA) weighing 18 to 22 g. […] After two weeks the limb perfusion was determined. Specifically, the ischemic (right) limb/normal (left) limb blood flow ratio was measured using a laser Doppler blood flow meter (Laser Doppler Perfusion Imager System, MoorLDI-Mark 2, Moor Instruments, Wilmington, Del., USA). […] After twice recording laser Doppler color images, the average perfusions of the ischemic and non-ischemic limb were calculated on the basis of colored histogram pixels. To minimize variables including ambient light and temperature, calculated perfusion was expressed as the ratio of ischemic to non-ischemic hind limb perfusion. […]

[3] = test system: bone marrow stem and progenitor cells; assay: migratory capacity of bone marrow stem and progenitor cells in response to SDF-1 (modified Boyden chamber); format: cell-based, human; conditions: 100 ng/ml SDF-1
Protocol: For incubation with the eNOS transcription enhancer 4-fluoro-N-(indan-2-yl)benzamide, 1 ml of a suspension of 1000000 stem and progenitor cells in 1 ml of X-Vivo 10 cell culture medium was mixed with 1 μl of a solution of 4-fluoro-N-(indan-2-yl)benzamide in dimethylsulfoxide (DMSO) which had been prepared by dissolution of 1.275 mg of 4-fluoro-N-(indan-2-yl)benzamide in 1 ml of DMSO. The concentration of 4-fluoro-N-(indan-2-yl)benzamide in the resulting mixture was 5 μM. For incubation with the eNOS transcription enhancer 4-fluoro-N-(indan-2-yl)benzamide and the eNOS inhibitor N^G-monomethyl-L-arginine (L-NMMA), in addition to 4-fluoro-N-(indan-2-yl)benzamide, L-NMMA (Sigma, St. Louis, Mo., USA) was added to the cell suspension to give a resulting mixture with a 4-fluoro-N-(indan-2-yl)benzamide concentration of 5 μM and an L-NMMA concentration of 1 mM. Incubation was carried for 18 hours at a temperature of 37° C. under an atmosphere of air containing 5% of carbon dioxide. The cells were isolated by centrifugation, washed two times with PBS and resuspended in X-Vivo 10.
For assessing the migratory capacity of bone marrow stem and progenitor cells, a total of 1×10^6 bone marrow stem and progenitor cells were resuspended in 250 μl of X-Vivo 10 and placed in the upper chamber of a modified Boyden chamber filled with matrigel (BioCoat invasion assay, 8 μm pore size, Becton Dickinson Labware, Two Oak Park, Bedford, Mass., USA). Then, the chamber was placed in a 24-well culture dish containing 500 μl endothelial basic medium (EBM) supplemented with either phosphate buffered saline (PBS), 50 ng/ml VEGF, or 100 ng/ml SDF-1. After 24 hours incubation at 37° C., transmigrated cells were counted.

Structure (SMILES) | TIR(max) value (maximum transcription induction ratio) [1] | EC50 [1] | melting point | laser Doppler-derived relative blood flow (ratio ischemic limb/normal limb) ([2]; cells from the patients treated for 18 hours with 5 μM compound and 1 mM L-NMMA) | laser Doppler-derived relative blood flow (ratio ischemic limb/normal limb) ([2]; cells from the patients treated for 18 hours with 5 μM compound) | migratory response to SDF-1 ([3]; cells from the healthy controls, 18 hours of treatment with 5 μM compound) | migratory response to SDF-1 ([3]; cells from the healthy controls, 18 hours of treatment with 5 μM compound, listed as 4-fluoro-(N-indan-2-yl)benzamide) | migratory response to SDF-1 ([3]; cells from the patients, 18 hours of treatment with 5 μM compound and 1 mM L-NMMA) | migratory response to SDF-1 ([3]; cells from the patients, 18 hours of treatment with 5 μM compound)
O=C(NC1Cc2ccccc2C1)c1ccc2c(c1)OC(F)(F)O2 [2,2-difluorobenzo[1,3]dioxol-5-carboxylic acid indan-2-ylamide] | 2.7 | 140 nM | 147.5 °C |  |  |  |  |  | 
O=C(NC1Cc2ccccc2C1)c1ccc(F)cc1 [4-fluoro-N-(indan-2-yl)benzamide] | 4.10 | 800 nM | 167 °C | 39.7 ± 10.3% | 59.1 ± 11.6% | 111.2±38.5 ×1000 migrated cells | 74.3±21.5 ×1000 migrated cells | 23.9±7.4 ×1000 migrated cells | 74.0±20.7 ×1000 migrated cells
